Source: patent US7109186B2 (Bristol-Myers Squibb Company, priority 2002, dated 2006)

Tests used:
HIV-integrase = target: T1, HIV-integrase (Human immunodeficiency virus type 1 group M subtype B, UniProt P04585); assay: HIV integrase SPA integration assay (biotin-labeled substrate DNA on streptavidin SPA beads, P33-labeled target DNA); type: biochemical; settings: percent inhibition of HIV-integrase in the presence of 20 μM of compound
T1 construct: 0.26 ng of recombinant integrase was incubated with the beads for 90 min at 37 C
Protocol: For each reaction, 5 pmole of biotin labeled substrate DNA was bound to 100 ug of Streptavidin coated PVT SPA beads (Amersham Pharmacia Biotech). 0.26 ng of recombinant integrase was incubated with the beads for 90 min at 37 C. Unbound enzyme was removed by washing the complex followed by addition of inhibitors and 0.1 fmol of P33 labeled target DNA. Reaction was stopped by adding EDTA to a final concentration of 10 mM. Samples were counted in TopCountNXT (Packard) and the CPM was used as a measure of integration. Reaction condition was as described in A. Engelman and R. Craigie, J. Virol. 69, 5908–5911 (1995). The sequences of substrate and target DNA were described in Nucleic Acid Research 22, 1121–1122 (1994).

SMILES | melting point | inhibition at 20 µM (HIV-integrase) [%]
CON(Cc1ccccc1C)C(=O)C1=C(O)C(=O)N(C)C1 [Compound 56, 4-Hydroxy-1-methyl-5-oxo-2,5-dihydro-1H-pyrrole-3-carboxylic acid methoxy-(2-methyl-benzyl)-amide] | 153 to 154 °C | 88
CON(Cc1ccc(F)c(Br)c1)C(=O)C1=C(O)C(=O)N(C)C1 [Compound 57, 4-Hydroxy-1-methyl-5-oxo-2,5-dihydro-1H-pyrrole-3-carboxylic acid (3-bromo-4-fluoro-benzyl)-methoxy-amide] | 154 to 157 °C (dec.) | 99.9
CC(C)CON(Cc1ccc(F)cc1)C(=O)C1=C(O)C(=O)N(C)C1 [Compound 58, 4-Hydroxy-1-methyl-5-oxo-2,5-dihydro-1H-pyrrole-3-carboxylic acid (4-fluoro-benzyl)-isobutoxy-amide] | 96 to 97 °C | 99.5
CON(Cc1ccc(C)cc1)C(=O)C1=C(O)C(=O)N(C)C1 [Compound 59, 4-Hydroxy-1-methyl-5-oxo-2,5-dihydro-1H-pyrrole-3-carboxylic acid methoxy-(4-methyl-benzyl)-amide] | 150 to 152 °C | 99.9
CON(Cc1ccc(C#N)cc1)C(=O)C1=C(O)C(=O)N(C)C1 [Compound 62, 4-Hydroxy-1-methyl-5-oxo-2,5-dihydro-1H-pyrrole-3-carboxylic acid (4-cyano-benzyl)-methoxy-amide] | 161 °C (dec.) | 97.7
CON(Cc1ccc(NC(C)=O)cc1)C(=O)C1=C(O)C(=O)N(C)C1 [Compound 63, 4-Hydroxy-1-methyl-5-oxo-2,5-dihydro-1H-pyrrole-3-carboxylic acid (4-acetylamino-benzyl)-methoxy-amide] | 110 °C | 12
CON(Cc1ccc(F)c(C)c1)C(=O)C1=C(O)C(=O)N(C)C1 [Compound 64, 4-Hydroxy-1-methyl-5-oxo-2,5-dihydro-1H-pyrrole-3-carboxylic acid (4-fluoro-3-methyl-benzyl)-methoxy-amide] | 160 to 164 °C | 99.7
CON(Cc1ccc(C)c(F)c1)C(=O)C1=C(O)C(=O)N(C)C1 [Compound 65, 4-Hydroxy-1-methyl-5-oxo-2,5-dihydro-1H-pyrrole-3-carboxylic acid (3-fluoro-4-methyl-benzyl)-methoxy-amide] | 145 °C | 99.9
CON(Cc1ccc(C(=O)O)cc1)C(=O)C1=C(O)C(=O)N(C)C1 [Compound 68, 4-{[(4-Hydroxy-1-methyl-5-oxo-2,5-dihydro-1H-pyrrole-3-carbonyl)-methoxy-amino]-methyl}-benzoic acid] | 196 to 197 °C | 12
CON(C(=O)C1=C(O)C(=O)N(C)C1)C(C)c1ccc(F)cc1 (centres unmarked) [Compound 69, 4-Hydroxy-1-methyl-5-oxo-2,5-dihydro-1H-pyrrole-3-carboxylic acid [1-(4-fluoro-phenyl)-ethyl]-methoxy-amide] | 136 to 138 °C | 97
CN1CC(C(=O)N(Cc2ccc(F)cc2)OCC(=O)OC(C)(C)C)=C(O)C1=O [Compound 70] | 128 to 130 °C | 99.8
CN1CC(C(=O)N(Cc2ccc(F)cc2)OCC(=O)O)=C(O)C1=O [Compound 71, [(4-Fluoro-benzyl)-(4-hydroxy-1-methyl-5-oxo-2,5-dihydro-1H-pyrrole-3-carbonyl)-aminooxy]-acetic acid] | 147 to 150 °C | 99.9
CN(C)C(=O)CON(Cc1ccc(F)cc1)C(=O)C1=C(O)C(=O)N(C)C1 [Compound 72, 4-Hydroxy-1-methyl-5-oxo-2,5-dihydro-1H-pyrrole-3-carboxylic acid dimethylcarbamoylmethoxy-(4-fluoro-benzyl)-amide] | 147 to 149 °C | 98.8
CON(Cc1ccc(F)cc1Cl)C(=O)C1=C(O)C(=O)N(C)C1 [Compound 74, 4-Hydroxy-1-methyl-5-oxo-2,5-dihydro-1H-pyrrole-3-carboxylic acid (2-chloro-4-fluoro-benzyl)-methoxy-amide] | 152 to 155 °C | 97.8
CN1CC(C(=O)N(C)C(Cc2ccc(Cl)cc2)Cc2ccc(Cl)cc2)=C(O)C1=O [Compound 75, 4-Hydroxy-1-methyl-5-oxo-2,5-dihydro-1H-pyrrole-3-carboxylic acid [1-(4-chloro-benzyl)-2-(4-chloro-phenyl)-ethyl]-methyl-amide] | 152 to 154 °C | 96.5
CN1CC(C(=O)N(Cc2ccc(F)cc2)c2ccc(Cl)c(Cl)c2)=C(O)C1=O [Compound 78, 4-Hydroxy-1-methyl-5-oxo-2,5-dihydro-1H-pyrrole-3-carboxylic acid (3,4-dichloro-phenyl)-(4-fluoro-benzyl)-amide] | 195 °C (dec.) | 99.9
